From BindingDB's records for doi:10.1021/ja011034p (University of Pennsylvania, 2001)

Each compound was assayed against Carbonic anhydrase 2 [F130V] (Homo sapiens, UniProt P00918, F130V) (assay: In vitro binding of inhibitor to hCA-II). Settings: pH 7.4; 37 °C.
Procedure: Inhibitor binding to CA II was determined using a fluorescence competition assay. Displacement of dansylamide and binding of the inhibitor was determined by measuring and comparing the average fluorescence intensities of the treated versus control reactions. Binding constants were estimated from a Dixon plot of the data (reciprocal of the average fluorescence intensity versus inhibitor concentration)

Kd	Structure (SMILES)
2.3 nM	NS(=O)(=O)c1ccc(C(=O)NCc2ccccc2F)cc1 [N-[(2-fluorophenyl)methyl]-4-sulfamoylbenzamide]
2 nM	NS(=O)(=O)c1ccc(C(=O)NCc2c(F)c(F)c(F)c(F)c2F)cc1 [N-[(2,3,4,5,6-pentafluorophenyl)methyl]-4-sulfamoylbenzamide]
1.6 nM	NS(=O)(=O)c1ccc(C(=O)NCc2cccc(F)c2F)cc1 [N-[(2,3-difluorophenyl)methyl]-4-sulfamoylbenzamide]
3.9 nM	NS(=O)(=O)c1ccc(C(=O)NCc2c(F)cccc2F)cc1 [N-[(2,6-difluorophenyl)methyl]-4-sulfamoylbenzamide]
